{
  "source": "patent US9962350B2",
  "about": "“Agent for improving normal development rate of fertilized eggs” (SBI Pharmaceuticals Co., Ltd., priority 2014, dated 2018)",
  "test_system": "fertilized eggs of the C57BL/6J lineage",
  "experiment": "In vitro culture of natural mating-derived fertilized eggs in M16 medium supplemented with ALA; embryo development",
  "type": "cell-based, mouse",
  "conditions": "37° C.",
  "source_text": "The female mice used to harvest fertilized eggs were female mice of the C57BL/6J lineage (21 weeks old to 27 weeks old, body weight: 21.0 to 24.5 g). The male mice used for mating were male mice of the C57BL/6J lineage (32 to 38 weeks old, body weight: 30.0 to 35.5 g). According to a routine method of controlled ovarian hyperstimulation, 5 U (units) of equine chorionic gonadotropin (serum gonadotrophin) (manufactured by ASKA Pharmaceutical Co., Ltd.) were intraperitoneally administered to each female mouse. 45 to 48 hours later, 5 U (units) of gonadotropin (human chorionic gonadotropin) (manufactured by ASKA Pharmaceutical Co., Ltd.) were intraperitoneally administered to each female mouse. Immediately after the administration of gonadotropin, each female mouse was mated with each male mouse described above.\nOn the next day, the presence or absence of a milky resin-like vaginal plug was determined for the mated female mice, and the oviducts were harvested from the female mice confirmed to have the vaginal plug. The harvested oviducts were left standing in physiological saline (0.9% (w/v) NaCl) for approximately 15 minutes and then transferred into M16 medium supplemented with approximately 300 μg/mL of hyaluronidase (manufactured by Sigma-Aldrich Corp.) for cumulus cell removal treatment. The oviducts were incised, and fertilized eggs were isolated and left standing at 37° C. for 5 to 10 minutes in a CO2 incubator. Then, the fertilized eggs separated from the cumulus cells were recovered and washed with hyaluronidase-unsupplemented M16 medium to remove hyaluronidase. The resulting cumulus cell-free fertilized eggs were left standing at 37° C. in a CO2 incubator.\nAside therefrom, a drop of 100 μL of M16 medium covered with mineral oil (manufactured by Sigma-Aldrich Corp.) and supplemented with ALA hydrochloride (manufactured by SBI Pharmaceuticals Co., Ltd.) at a final concentration of 0 μM (control), 0.1 μM, 0.5 μM, or 1 μM was prepared in a 35 mm Petri dish and left standing at 37° C. in a CO2 incubator. 29 or 30 of the cumulus cell-free fertilized eggs were transferred to the resulting drop and cultured in vitro at 37° C. in a CO2 incubator.\nAfter a lapse of 24 hours, 48 hours, 72 hours, and 96 hours from the start of the in vitro culture (0 hours) in the drop, the developmental stage of each embryo was determined by observation under a stereoscopic microscope, and the number of embryos whose development progressed normally and change in development rate were calculated. Specifically, the number of 2-cell eggs 24 hours after the start of the culture, the number of 3-cell, 4-cell, and 8-cell eggs 48 hours thereafter, the number of morulae and blastocysts 72 hours thereafter, and the number of blastocysts 96 hours thereafter were counted as embryos whose development progressed normally at each stage. The development rate with the number of fertilized eggs (0 hours) defined as 100% is shown in Table 3 and the graph of FIG. 1. For the evaluation of the development rate, the percentage of the number of embryos whose development progressed normally 24 hours, 48 hours, 72 hours, and 96 hours after the start of the culture was calculated with the number of fertilized eggs (0 hours) defined as 100%, and used as a normal development rate. Because of the natural mating, the number of recovered fertilized eggs (0 hours) includes unfertilized eggs to some extent, and there is the possibility that the content of unfertilized eggs varies accidentally among fertilized eggs (0 hours) populations distributed to the respective condition groups even if the fertilized eggs (0 hours) populations have been recovered in the same experiment. The development rate calculated with the number of 2-cell embryos 24 hours postfertilization defined as 100% was calculated in order to eliminate the influence of the content of unfertilized eggs that varies accidentally among the respective condition groups. […]",
  "data": [
    {"smiles": "NCC(=O)CCC(=O)O", "note": "[ALA, 5-aminolevulinic acid]", "values": [
      {"measurement": "The number of developed embryos", "setting": "0.1 μM ALA, 24 hr", "result": 22},
      {"measurement": "development rate with the number of fertilized eggs (0 hr) defined as 100%", "setting": "0.1 μM ALA, 24 hr", "result": 73, "unit": "%"},
      {"measurement": "The number of developed embryos", "setting": "0.1 μM ALA, 48 hr", "result": 19},
      {"measurement": "development rate with the number of 2-cell embryos 24 hours postfertilization defined as 100%", "setting": "0.1 μM ALA, 48 hr", "result": 86, "unit": "%"},
      {"measurement": "development rate with the number of fertilized eggs (0 hr) defined as 100%", "setting": "0.1 μM ALA, 48 hr", "result": 63, "unit": "%"},
      {"measurement": "The number of developed embryos", "setting": "0.1 μM ALA, 72 hr", "result": 14},
      {"measurement": "development rate with the number of 2-cell embryos 24 hours postfertilization defined as 100%", "setting": "0.1 μM ALA, 72 hr", "result": 64, "unit": "%"},
      {"measurement": "The number of developed embryos", "setting": "0.1 μM ALA, 96 hr", "result": 7},
      {"measurement": "The number of developed embryos", "setting": "0.5 μM ALA, 24 hr", "result": 24},
      {"measurement": "development rate with the number of fertilized eggs (0 hr) defined as 100%", "setting": "0.5 μM ALA, 24 hr", "result": 83, "unit": "%"},
      {"measurement": "The number of developed embryos", "setting": "0.5 μM ALA, 48 hr", "result": 21},
      {"measurement": "development rate with the number of 2-cell embryos 24 hours postfertilization defined as 100%", "setting": "0.5 μM ALA, 48 hr", "result": 88, "unit": "%"},
      {"measurement": "development rate with the number of fertilized eggs (0 hr) defined as 100%", "setting": "0.5 μM ALA, 48 hr", "result": 72, "unit": "%"},
      {"measurement": "The number of developed embryos", "setting": "0.5 μM ALA, 72 hr", "result": 14},
      {"measurement": "development rate with the number of 2-cell embryos 24 hours postfertilization defined as 100%", "setting": "0.5 μM ALA, 72 hr", "result": 58, "unit": "%"},
      {"measurement": "The number of developed embryos", "setting": "0.5 μM ALA, 96 hr", "result": 13},
      {"measurement": "The number of developed embryos", "setting": "1 μM ALA, 24 hr", "result": 19},
      {"measurement": "development rate with the number of fertilized eggs (0 hr) defined as 100%", "setting": "1 μM ALA, 24 hr", "result": 66, "unit": "%"},
      {"measurement": "The number of developed embryos", "setting": "1 μM ALA, 48 hr", "result": 19},
      {"measurement": "development rate with the number of 2-cell embryos 24 hours postfertilization defined as 100%", "setting": "1 μM ALA, 48 hr", "result": 100, "unit": "%"},
      {"measurement": "development rate with the number of fertilized eggs (0 hr) defined as 100%", "setting": "1 μM ALA, 48 hr", "result": 66, "unit": "%"},
      {"measurement": "The number of developed embryos", "setting": "1 μM ALA, 72 hr", "result": 15},
      {"measurement": "The number of developed embryos", "setting": "1 μM ALA, 96 hr", "result": 13}
    ]}
  ]
}
